Laboratory results reported in patent publication US20240150377A1, “MODULATORS OF CYSTIC FIBROSIS TRANSMEMBRANE CONDUCTANCE REGULATOR” (VERTEX PHARMACEUTICALS INCORPORATED, priority 2020, published 2024).
Read-outs that look alike come from different tables or passages of the source. Each block holds one molecule with its values, some of them ahead of it.

Target: T1, CFTR (Homo sapiens, UniProt P13569, DEL508-508)
T1 construct: endogenous in cells; host or cells: primary human bronchial epithelial cells from CF subjects (F508del/MF-HBE), differentiated at air-liquid interface
Assay: HBE assay: Ussing chamber assay of CFTR-mediated short-circuit currents
Format: cell-based
Settings: for activation at 10 µM: read-out: HBE Activity at 10 μM (%)
Protocol: 1. Ussing Chamber Assay of CFTR-Mediated Short-Circuit Currents
(§1) Ussing chamber experiments were performed using human bronchial epithelial (HBE) cells derived from CF subjects heterozygous for F508del and a minimal function CFTR mutation (F508del/MF-HBE) and cultured as previously described (Neuberger T, Burton B, Clark H, Van Goor F Methods Mol Biol 2011:741:39-54). After four days the apical media was removed, and the cells were grown at an air liquid interface for >14 days prior to use.
(§2) To isolate the CFTR-mediated short-circuit (ISC) current, F508del/MF-HBE grown on Costar® Snapwell™ cell culture inserts were mounted in an Ussing chamber and the transepithelial ISC was measured under voltage-clamp recording conditions (Vhold=0 mV) at 37° C. The basolateral solution contained (in mM) 145 NaCl, 0.83 K2HPO4, 3.3 KH2PO4, 1.2 MgCl2, 1.2 CaCl2), 10 Glucose, 10 HEPES (pH adjusted to 7.4 with NaOH) and the apical solution contained (in mM) 145 NaGluconate, 1.2 MgCl2, 1.2 CaCl2), 10 glucose, 10 HEPES (pH adjusted to 7.4 with NaOH) and 30 μM amiloride to block the epithelial sodium channel. Forskolin (20 μM) was added to the apical surface to activate CFTR, followed by apical addition of a CFTR inhibitor cocktail consisting of BPO, GlyH-101, and CFTR inhibitor 172 (each at 20 μM final assay concentration) to specifically isolate CFTR currents. The CFTR-mediated ISC (μA/cm^2) for each condition was determined from the peak forskolin response to the steady-state current following inhibition.
2. Identification of Corrector Compounds
The activity of the CFTR corrector compounds on the CFTR-mediated ISC was determined in Ussing chamber studies as described above. The F508del/MF-HBE cell cultures were either incubated with the corrector compounds at a range of concentrations in combination with 1 μM Ivacaftor or were incubated with the corrector compounds at a single fixed concentration of 10 μM in combination with 1 μM Ivacaftor for 18-24 hours at 37° C. and in the presence of 20% human serum. The concentration of corrector compounds with 1 μM Ivacaftor during the 18-24 hours incubations was kept constant throughout the Ussing chamber measurement of the CFTR-mediated ISC to ensure compounds were present throughout the entire experiment.
Ussing Chamber Assay of CFTR-mediated short-circuit currents
as §1, with “(HIBE)” for “(HBE)”, “(F508del/MIF-HIBE)” for “(F508del/MF-HBE)”
as §2, with “KH2PO4,” for “K2HPO4,”
Identification of Corrector Compounds

[1] = Table 11, read-out: HBE Max Activity (%)

T1 sequence (P13569 with tags, fused parts or gaps DEL508-508): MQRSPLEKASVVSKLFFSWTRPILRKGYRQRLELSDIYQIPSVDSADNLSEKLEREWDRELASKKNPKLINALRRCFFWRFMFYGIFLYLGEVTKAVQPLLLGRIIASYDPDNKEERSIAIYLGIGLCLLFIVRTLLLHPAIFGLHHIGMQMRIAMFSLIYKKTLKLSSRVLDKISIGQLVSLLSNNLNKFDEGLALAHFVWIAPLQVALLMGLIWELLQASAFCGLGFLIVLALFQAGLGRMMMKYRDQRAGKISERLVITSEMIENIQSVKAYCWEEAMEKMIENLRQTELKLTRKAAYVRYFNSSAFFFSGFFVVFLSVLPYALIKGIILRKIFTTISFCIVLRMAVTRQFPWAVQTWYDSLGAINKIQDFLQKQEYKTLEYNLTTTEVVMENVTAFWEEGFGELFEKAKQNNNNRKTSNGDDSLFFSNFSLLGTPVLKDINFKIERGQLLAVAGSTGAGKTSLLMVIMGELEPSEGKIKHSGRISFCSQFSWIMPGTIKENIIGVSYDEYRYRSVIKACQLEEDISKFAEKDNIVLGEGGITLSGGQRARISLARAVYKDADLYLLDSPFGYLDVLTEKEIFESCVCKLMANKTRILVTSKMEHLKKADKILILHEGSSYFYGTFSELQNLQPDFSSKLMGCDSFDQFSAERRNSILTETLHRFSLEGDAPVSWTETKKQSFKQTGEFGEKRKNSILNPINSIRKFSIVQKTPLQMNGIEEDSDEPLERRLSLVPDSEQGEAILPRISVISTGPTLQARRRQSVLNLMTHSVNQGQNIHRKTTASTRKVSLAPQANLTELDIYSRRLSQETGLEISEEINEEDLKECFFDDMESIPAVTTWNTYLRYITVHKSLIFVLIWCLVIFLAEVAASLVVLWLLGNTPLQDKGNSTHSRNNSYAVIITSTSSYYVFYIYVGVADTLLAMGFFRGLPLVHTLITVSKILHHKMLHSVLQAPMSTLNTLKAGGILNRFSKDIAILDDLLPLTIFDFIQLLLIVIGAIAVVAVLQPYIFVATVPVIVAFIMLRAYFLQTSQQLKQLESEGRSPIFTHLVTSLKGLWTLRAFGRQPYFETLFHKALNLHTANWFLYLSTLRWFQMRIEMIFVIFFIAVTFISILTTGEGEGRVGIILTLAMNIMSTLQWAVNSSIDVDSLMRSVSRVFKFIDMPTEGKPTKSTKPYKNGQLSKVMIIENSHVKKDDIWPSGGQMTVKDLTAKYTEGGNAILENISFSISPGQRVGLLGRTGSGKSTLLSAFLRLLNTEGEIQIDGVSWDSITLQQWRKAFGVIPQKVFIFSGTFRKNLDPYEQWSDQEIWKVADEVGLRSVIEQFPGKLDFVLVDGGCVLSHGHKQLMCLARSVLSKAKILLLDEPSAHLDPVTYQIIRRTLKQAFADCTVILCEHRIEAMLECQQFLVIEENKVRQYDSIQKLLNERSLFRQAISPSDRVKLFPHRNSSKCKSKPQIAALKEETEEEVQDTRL

Compound: Cc1cccc(C)c1-c1cc2nc(n1)NS(=O)(=O)c1cccc(c1)C(=O)N(Cc1ncc(N3CCC(C)(C)CC3)cn1)[C@H](CC(C)(C)C)CO2 [Compound 117, (11R)-6-(2,6-dimethylphenyl)-12-[[5-(4,4-dimethyl-1-piperidyl)pyrimidin-2-yl]methyl]-11-(2,2-dimethylpropyl)-2,2-dioxo-9-oxa-2λ^6-thia-3,5,12,19-tetrazatricyclo[12.3.1.14,8]nonadeca-1(18),4(19),5,7,14,16-hexaen-13-one]
EC50 (Table 11, read-out: HBE EC50): < 1 µM
Emax [1]: > 60%

Compound: Cc1cccc(C)c1-c1cc2nc(n1)NS(=O)(=O)c1cccc(c1)C(=O)N(Cc1ncc(CC(C)C)cn1)[C@H](CC(C)(C)C)CO2 [Compound 120, (11R)-6-(2,6-Dimethylphenyl)-11-(2,2-dimethylpropyl)-12-[(5-isobutylpyrimidin-2-yl)methyl]-2,2-dioxo-9-oxa-2λ^6-thia-3,5,12,19-tetrazatricyclo[12.3.1.14,8]nonadeca-1(18),4(19),5,7,14,16-hexaen-13-one]
EC50 (Table 11, read-out: HBE EC50): < 1 µM
Emax [1]: > 60%

Compound: Cc1cccc(C)c1-c1cc2nc(n1)NS(=O)(=O)c1cccc(c1)C(=O)N(Cc1cccc(Oc3ccccc3)n1)[C@H](CC(C)(C)C)CO2 [Compound 126, (11R)-6-(2,6-Dimethylphenyl)-11-(2,2-dimethylpropyl)-2,2-dioxo-12-[(6-phenoxy-2-pyridyl)methyl]-9-oxa-2λ^6-thia-3,5,12,19-tetrazatricyclo[12.3.1.14,8]nonadeca-1(18),4(19),5,7,14,16-hexaen-13-one]
EC50 (HBE EC50 (μM), Table 10): < 1 µM
Emax (read-out: HBE Max activity (%)): > 60%

Compound: COCCCN(C)c1cccc(CN2C(=O)c3cccc(c3)S(=O)(=O)Nc3nc(cc(-c4c(C)cccc4C)n3)OC[C@H]2CC(C)(C)C)n1 [Compound 127, (11R)-6-(2,6-Dimethylphenyl)-11-(2,2-dimethylpropyl)-12-[[6-[3-methoxypropyl(methyl)amino]-2-pyridyl]methyl]-2,2-dioxo-9-oxa-2λ^6-thia-3,5,12,19-tetrazatricyclo[12.3.1.14,8]nonadeca-1(18),4(19),5,7,14,16-hexaen-13-one]
EC50 (Table 10, read-out: HBE EC50): < 1 µM
Emax (read-out: HBE Max activity (%)): > 60%

Compound: COCCN(CCOC)c1cccc(CN2C(=O)c3cccc(c3)S(=O)(=O)Nc3nc(cc(-c4c(C)cccc4C)n3)OC[C@H]2CC(C)(C)C)n1 [Compound 128, (11R)-12-[[6-[Bis(2-methoxyethyl)amino]-2-pyridyl]methyl]-6-(2,6-dimethylphenyl)-11-(2,2-dimethylpropyl)-2,2-dioxo-9-oxa-2λ^6-thia-3,5,12,19-tetrazatricyclo[12.3.1.14,8]nonadeca-1(18),4(19),5,7,14,16-hexaen-13-one]
EC50 (Table 10, read-out: HBE EC50): < 1 µM
activation at 10 µM: > 60%
Emax (read-out: HBE Max activity (%)): > 60%

Compound: COCC1CCCN1c1cccc(CN2C(=O)c3cccc(c3)S(=O)(=O)Nc3nc(cc(-c4c(C)cccc4C)n3)OC[C@H]2CC(C)(C)C)n1 (stereo partly drawn) [Compound 129, (11R)-6-(2,6-Dimethylphenyl)-11-(2,2-dimethylpropyl)-12-[[6-[2-(methoxymethyl)pyrrolidin-1-yl]-2-pyridyl]methyl]-2,2-dioxo-9-oxa-2λ^6-thia-3,5,12,19-tetrazatricyclo[12.3.1.14,8]nonadeca-1(18),4(19),5,7,14,16-hexaen-13-one]
EC50 (Table 10, read-out: HBE EC50): < 1 µM
activation at 10 µM: > 60%
Emax (read-out: HBE Max activity (%)): > 60%

Compound: CCN(c1cccc(CN2C(=O)c3cccc(c3)S(=O)(=O)Nc3nc(cc(-c4c(C)cccc4C)n3)OC[C@H]2CC(C)(C)C)n1)C(C)C [Compound 131, (11R)-6-(2,6-Dimethylphenyl)-11-(2,2-dimethylpropyl)-12-({6-[ethyl(propan-2-yl)amino]pyridin-2-yl}methyl)-9-oxa-2λ^6-thia-3,5,12,19-tetraazatricyclo[12.3.1.14,8]nonadeca-1(17),4,6,8(19),14(18),15-hexaene-2,2,13-trione]
EC50 (Table 11, read-out: HBE EC50): < 1 µM
Emax (read-out: HBE Max activity (%)): > 60%

Compound: Cc1cccc(C)c1-c1cc2nc(n1)NS(=O)(=O)c1cccc(c1)C(=O)N(Cc1cccc(N3CCC[C@H]3C)n1)[C@H](CC(C)(C)C)CO2 [Compound 132, (11R)-6-(2,6-Dimethylphenyl)-11-(2,2-dimethylpropyl)-12-({6-[(2R)-2-methylpyrrolidin-1-yl]pyridin-2-yl}methyl)-9-oxa-2λ^6-thia-3,5,12,19-tetraazatricyclo[12.3.1.14,8]nonadeca-1(17),4,6,8(19),14(18),15-hexaene-2,2,13-trione]
EC50 (HBE EC50 (μM), Table 11): < 1 µM
Emax (read-out: HBE Max activity (%)): > 60%

Further lines, results first:

EC50 (Table 11, read-out: HBE EC50): < 1 µM
Emax [1]: > 60%
Compound: Cc1cccc(C)c1-c1cc2nc(n1)NS(=O)(=O)c1cccc(c1)C(=O)N(Cc1nccc(C(C)C)n1)[C@H](CC(C)(C)C)CO2 [Compound 121, (11R)-6-(2,6-Dimethylphenyl)-11-(2,2-dimethylpropyl)-12-[(4-isopropylpyrimidin-2-yl)methyl]-2,2-dioxo-9-oxa-2λ^6-thia-3,5,12,19-tetrazatricyclo[12.3.1.14,8]nonadeca-1(18),4(19),5,7,14,16-hexaen-13-one]

EC50 (Table 11, read-out: HBE EC50): < 1 µM
Emax [1]: > 60%
Compound: Cc1cccc(C)c1-c1cc2nc(n1)NS(=O)(=O)c1cccc(c1)C(=O)N(Cc1nccc(N(C)C(C)C)n1)[C@H](CC(C)(C)C)CO2 [Compound 123, (11R)-6-(2,6-Dimethylphenyl)-11-(2,2-dimethylpropyl)-12-[[4-[isopropyl(methyl)amino]pyrimidin-2-yl]methyl]-2,2-dioxo-9-oxa-2λ^6-thia-3,5,12,19-tetrazatricyclo[12.3.1.14,8]nonadeca-1(18),4(19),5,7,14,16-hexaen-13-one]

EC50 (Table 11, read-out: HBE EC50): < 1 µM
Emax [1]: > 60%
Compound: Cc1cccc(C)c1-c1cc2nc(n1)NS(=O)(=O)c1cccc(c1)C(=O)N(Cc1cccc(N(C)CC(C)(C)C)n1)[C@H](CC(C)(C)C)CO2 [Compound 133, (11R)-6-(2,6-Dimethylphenyl)-11-(2,2-dimethylpropyl)-12-[[6-[2,2-dimethylpropyl(methyl)amino]-2-pyridyl]methyl]-2,2-dioxo-9-oxa-2λ^6-thia-3,5,12,19-tetrazatricyclo[12.3.1.14,8]nonadeca-1(18),4(19),5,7,14,16-hexaen-13-one]

EC50 (Table 11, read-out: HBE EC50): < 1 µM
Emax [1]: > 60%
Compound: Cc1cccc(C)c1-c1cc2nc(n1)NS(=O)(=O)c1cccc(c1)C(=O)N(C[C@@H]1CN(CC(C)(C)C)CCO1)[C@H](CC(C)(C)C)CO2 [Compound 142, (11R)-6-(2,6-Dimethylphenyl)-11-(2,2-dimethylpropyl)-12-{[(2S)-4-(2,2-dimethylpropyl)morpholin-2-yl]methyl}-9-oxa-2λ^6-thia-3,5,12,19-tetraazatricyclo[12.3.1.14,8]nonadeca-1(17),4,6,8(19),14(18),15-hexaene-2,2,13-trione]

EC50 (Table 10, read-out: HBE EC50): < 1 µM
Emax (Table 10, read-out: HBE Max activity (%)): > 60%
Compound: Cc1cccc(C)c1-c1cc2nc(n1)NS(=O)(=O)c1cccc(c1)C(=O)N(Cc1ccc(-c3c(C)n[nH]c3C)cc1)[C@H](CC(C)(C)C)CO2 [Compound 143, (11R)-12-{[4-(3,5-dimethyl-1H-pyrazol-4-yl)phenyl]methyl}-6-(2,6-dimethylphenyl)-11-(2,2-dimethylpropyl)-9-oxa-2λ^6-thia-3,5,12,19-tetraazatricyclo[12.3.1.14,8]nonadeca-1(17),4,6,8(19),14(18),15-hexaene-2,2,13-trione]
